Source: patent publication US9301952B2, “Diarylpyridine anti-viral compounds” (Kineta, Inc., priority 2010, dated 2016)
Read-outs that look alike come from different tables or passages of the source.

Tests used:
[1] = tested on: Murine Encephalomyocarditis virus (EMCV); assay: EMCV antiviral assay (cell viability by MTS after infection); format: cell-based; conditions: Huh7 cells, EMCV 250 pfu
HCV RNA = assay: Decrease of HCV RNA; format: cell-based, Hepatitis C virus
Protocol: KIN400 compounds are tested for in vitro antiviral activity against HCV 2A and influenza A virus (A/WSN/33). Viral protein and RNA levels are assessed following drug treatment using the assays described above.

Influenza WSN strain [2] = tested on: Influenza WSN strain
IRF-3 = assay: Activation of IRF-3; format: cell-based
Influenza WSN strain [3] = assay: microbe, parasite or virus in culture; conditions: Influenza A virus, A549, read-out: Influenza nucleoprotein (NP) ELISA (IC50)
HCV2a = assay: HCV focus-forming assay (FFA) / HCV IF antiviral assay; format: cell-based, Hepatitis C virus
Protocol: FIG. 1 is a graph of an HCV focus-forming assay. Huh7 cells were pre-treated with compound KIN400 for 24 hours and infected with HCV2a at an multiplicity of infection (MOI) of 0.5 for 48 hours. HCV protein was detected by immunofluorescent staining with viral-specific serum and foci were normalized to negative control cells that were not drug treated (equal to 1).
HCV IF antiviral assay. Huh7 cells are seeded on a 96 well plate at 5×10^3 cells per well and cells are allowed to attach and grow for 24 hours. Compounds that have been diluted to 10 uM in media and contain a final concentration of 0.5% DMSO are added to each well and grown another 24 hours. The compound media solution is removed from the plate and stored in a clean tissue culture dish. Cell monolayers are washed with PBS and HCV2a virus is added at the stated MOI. Virus is incubated for 2-4 hours and then removed, the monolayers are washed with PBS and the compound solutions are replaced into each well.
The cells are grown overnight and then cells are fixed and stained for HCV proteins. All buffers and reagents are used from the Cellomics staining kits described above. Primary serum PHS#72 is diluted 1:3,000 in wash buffer and incubated at room temperature 1 hour. […] The number of infected cells is counted and representative images are saved.

Huh7 cells = assay: MTS assay to determine cytotoxicity; format: cell-based, human
Protocol: (§1) MTS assay to determine cytotoxicity. Cultured human Huh7 cells are treated with increasing amounts of compound or equivalent amounts of DMSO diluted in media for 24 hours to see their effect on cell viability. The proportion of viable cells is calculated using a cell viability assay that measures conversion of a tetrazolium compound [[…]-5-(3-carboxymethoxyphenyl)-2-(4-sulfophenyl)-2H-tetrazolium, inner salt; MTS] to a colored formazan compound in live cells.
(§2) The conversion of MTS to formazan is detected in a 96-well microtiter plate reader, and the resulting optical densities can be plotted directly to estimate cell viability. […] Compounds were diluted to final concentrations of 0, 5, 10, 20, and 50 uM in media containing 0.5% DMSO. Negative control wells contain no compound and positive control for cytotoxicity is examined using an EMCV infection which causes 100% cytopathic effect. Each compound concentration and control is done in triplicate wells to generate error bars.

[4] = MTS assay to determine cytotoxicity; format: cell-based, human; conditions: human; Huh7 cells, 24 hours
Protocol: as §1, §2

SMILES: N#Cc1c(-c2ccccc2)cc(-c2ccccc2)nc1SCC(=O)N1CCOCC1 [KIN400]
- Cell viability post-infection ([1]; 5 μM): ~0.75
- Cell viability post-infection ([1]; 10 μM): ~0.95
- Cell viability post-infection ([1]; 20 μM): ~1.05
- Decrease HCV RNA (HCV RNA): Yes
- Decrease HCV RNA (HCV RNA; listed as KIN100): decrease in HCV RNA
- Therapeutic index (TI) (CC50/IC50) (Influenza WSN strain [2]): > 10
- Therapeutic index (TI) (CC50/IC50) (Influenza WSN strain [2]; listed as KIN100): 250
- antiviral activity against influenza virus (in words) (Influenza WSN strain [2]; influenza virus strain WSN): antiviral activity against influenza virus
- activation of IRF-3 (IRF-3): activation of IRF-3
- IC50 (Influenza WSN strain [3]): 0.2 µM
- IC50 (HCV2a; Hepatitis C virus, Huh-7, Huh7 cells): 5.1 µM
- IC50 (HCV2a; Huh7 cells): 5.1 µM
- CC50 (Huh7 cells): > 50 µM
- cytotoxicity (in words) (Huh7 cells): low cytotoxicity
- CC50 at 24 h [4]: > 50 µM
